Measurements reported in ChEMBL document CHEMBL4842340, “Development of Cagrilintide, a Long-Acting Amylin Analogue” (J Med Chem, 2021).
Converted amounts (≈) assume the structure as drawn. *1 amine or outer side, *2 acyl side, *3 side chain or, on linkers, in order; H or OH if unused. Where a SMILES comes first, the peptide text is derived from it. Bridges are numbered along the chain shown (N, C = ends). [ ]: non-standard residue; d: D form. The star is where a group is joined. C20 diacid = O=C(O)CCCCCCCCCCCCCCCCCCC(=O)*; γGlu = O=C(O)[C@H](CCC(=O)[*:2])N[*:1]; AEEA = NCCOCCOCC(=O)O

Key:
Insulin (Homo sapiens) [1] = target: Insulin (Homo sapiens) (UniProt P01308); assay: Effect on insulin (unknown origin) amyloid fibril formation assessed as peptide recovery in glycyl-glycine buffer at pH 4 measured after 45 hrs by thioflavin-T fluorescence assay relative to control; parameters: concentration or dose not given beside the values
[2] = Solubility of the compound in lactate at pH 4 by UPLC analysis; type: physicochemical; details: lactate buffer
[3] = Solubility of the compound in bis-tris propane at pH 7.5 by UPLC analysis; type: physicochemical; details: bis-tris propane buffer
[4] = Agonist activity at human calcitonin receptor expressed in BHK570 cells assessed as increase in intracellular cAMP concentration incubated for 3 hrs in absence of albumin by CRE luciferase reporter gene assay; type: cell-based; details: BHK570, 3 h
Rattus norvegicus [5] = organism: Rattus norvegicus; assay: Ratio of EC50 for rat calcitonin receptor expressed in BHK-13 cells to EC50 for rat AMY3R (CT+RAMP3) expressed in tk-ts13 cells; type: cell-based
[6] = Solubility of the compound in bis-tris propane at pH 6.5 by UPLC analysis; type: physicochemical; details: bis-tris propane buffer
[7] = Solubility of the compound in bis-tris propane at pH 6 by UPLC analysis; type: physicochemical; details: bis-tris propane buffer
Insulin (Homo sapiens) [8] = target: Insulin (Homo sapiens) (UniProt P01308); assay: Effect on insulin (unknown origin) amyloid fibril formation assessed as lag time in glycyl-glycine buffer at pH 4 measured after 45 hrs by thioflavin-T fluorescence assay
[9] = Solubility of the compound in lactate at pH 3 by UPLC analysis; type: physicochemical; details: lactate buffer
Rattus norvegicus [10] = assay: Reduction in food intake in Sprague-Dawley rat at 3 nmol/kg, sc administered as single dose measured upto 24 hrs relative to control; type: functional; parameters: scale not given: the % may be the effect or the level left; details: time hrs <=24
[11] = Solubility of the compound in bis-tris propane at pH 8 by UPLC analysis; type: physicochemical; details: bis-tris propane buffer
Rattus norvegicus [12] = assay: Reduction in food intake in Sprague-Dawley rat at 3 nmol/kg, sc administered as single dose measured after 24 to 48 hrs relative to control; type: functional; parameters: scale not given: the % may be the effect or the level left; details: time 24-48 hrs
[13] = Agonist activity at human AMY3R (CT+RAMP3) expressed in Hollex1 cells incubated for 3 hrs by luminescence assay; type: cell-based; details: Hollex1, 3 h
[14] = Solubility of the compound in lactate at pH 5 by UPLC analysis; type: physicochemical; details: lactate buffer
[15] = Solubility of the compound in bis-tris propane at pH 7 by UPLC analysis; type: physicochemical; details: bis-tris propane buffer
[16] = Agonist activity at rat calcitonin receptor expressed in BHK-13 cells assessed as increase in intracellular cAMP concentration incubated for 25 mins by CRE luciferase reporter gene assay; type: cell-based; details: BHK-13, 25 min
[17] = Agonist activity at rat AMY3R (CT+RAMP3) expressed in tk-ts13 cells assessed as increase in intracellular cAMP level incuabted for 25 mins by CRE luciferase reporter gene assay; type: cell-based; details: tk-ts13, 25 min
Homo sapiens = organism: Homo sapiens; assay: Ratio of EC50 for human calcitonin receptor expressed in BHK570 cells to EC50 for human AMY3R (CT+RAMP3) expressed in Hollex1 cells; type: cell-based

Chain of Insulin (Homo sapiens) (P01308 whole entry): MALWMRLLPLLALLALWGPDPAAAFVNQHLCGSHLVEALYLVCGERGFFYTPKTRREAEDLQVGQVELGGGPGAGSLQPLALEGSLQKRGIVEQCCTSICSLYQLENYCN

Activity (Insulin (Homo sapiens) [1]) [%] | solubility [2] [µM] | solubility [3] [µM] | EC50 [4] [nM] | solubility [6] [µM] | solubility [7] [µM] | TIME (Insulin (Homo sapiens) [8]) [h] | solubility [9] [µM] | solubility [11] [µM] | EC50 [13] [nM] | solubility [14] [µM] | solubility [15] [µM] | EC50 [16] [nM] | EC50 [17] [nM] | SMILES | Ratio EC50 (Rattus norvegicus [5]) | Activity (Rattus norvegicus [10]) [%] | Activity (Rattus norvegicus [12]) [%] | Ratio EC50 (Homo sapiens)
94 | 200 (≈ 1000 µg/mL) | 200 (≈ 1000 µg/mL) | 1.08 | 200 (≈ 1000 µg/mL) | 200 (≈ 1000 µg/mL) | 45 | 200 (≈ 1000 µg/mL) | 200 (≈ 1000 µg/mL) | 0.14 | 200 (≈ 1000 µg/mL) | 200 (≈ 1000 µg/mL) | 4.48 | 0.233 | CC[C@H](C)[C@H](NC(=O)[C@@H]1CCCN1C(=O)CNC(=O)[C@H](Cc1ccccc1)NC(=O)[C@H](CC(N)=O)NC(=O)[C@H](C)NC(=O)[C@H](CO)NC(=O)[C@H](CO)NC(=O)[C@H](CCCNC(=N)N)NC(=O)[C@H](Cc1cnc[nH]1)NC(=O)[C@H](CC(C)C)NC(=O)[C@H](Cc1ccccc1)NC(=O)[C@H](CCC(=O)O)NC(=O)[C@H](C)NC(=O)[C@H](CC(C)C)NC(=O)[C@H](CCCNC(=N)N)NC(=O)[C@H](CCC(N)=O)NC(=O)[C@@H](NC(=O)[C@H](C)NC(=O)[C@@H]1CSSC[C@H](NC(=O)[C@H](CCCCN)NC(=O)[C@@H](CCCNC(=N)N)NC(=O)[C@@H](CCCNC(=N)N)NC(=O)COCCOCCNC(=O)COCCOCCNC(=O)CC[C@H](NC(=O)CCCCCCCCCCCCCCCCCCC(=O)O)C(=O)O)C(=O)N[C@@H](CC(N)=O)C(=O)N[C@@H]([C@@H](C)O)C(=O)N[C@@H](C)C(=O)N[C@@H]([C@@H](C)O)C(=O)N1)[C@@H](C)O)C(=O)N[C@@H](CC(C)C)C(=O)N1CCC[C@H]1C(=O)N1CCC[C@H]1C(=O)N[C@H](C(=O)N[C@@H](CC(N)=O)C(=O)N[C@H](C(=O)NCC(=O)N[C@@H](CO)C(=O)N[C@@H](CO)C(=O)N[C@H](C(=O)N[C@@H](Cc1ccc(O)cc1)C(N)=O)[C@@H](C)O)C(C)C)[C@@H](C)O ({C20 diacid-γGlu-AEEA-AEEA}-[dR][dR]KCNTATCATQRLAEFLHRSSANFGPILPPTNVGSSTY-NH2; disulfide 4-9) | 19 | 16 | 0 | 8
0 | 200 (≈ 923 µg/mL) | 200 (≈ 923 µg/mL) | 0.205 | 200 (≈ 923 µg/mL) | 200 (≈ 923 µg/mL) | 2 | 200 (≈ 923 µg/mL) | 200 (≈ 923 µg/mL) | 0.129 | 200 (≈ 923 µg/mL) | 200 (≈ 923 µg/mL) | 1.34 | 0.277 | CC[C@H](C)[C@H](NC(=O)[C@@H]1CCCN1C(=O)CNC(=O)[C@H](Cc1ccccc1)NC(=O)[C@H](CC(N)=O)NC(=O)[C@H](CC(N)=O)NC(=O)[C@H](CO)NC(=O)[C@H](CO)NC(=O)[C@H](Cc1cnc[nH]1)NC(=O)[C@H](Cc1cnc[nH]1)NC(=O)[C@H](CC(C)C)NC(=O)[C@H](Cc1ccccc1)NC(=O)[C@H](CCC(=O)O)NC(=O)[C@H](C)NC(=O)[C@H](CC(C)C)NC(=O)[C@H](CCCNC(=N)N)NC(=O)[C@H](CCC(N)=O)NC(=O)[C@@H](NC(=O)[C@H](C)NC(=O)[C@@H]1CSSC[C@H](NC(=O)[C@H](CCCNC(=N)N)NC(=O)CC[C@H](NC(=O)CC[C@H](NC(=O)CCCCCCCCCCCCCCCCCCC(=O)O)C(=O)O)C(=O)O)C(=O)N[C@@H](CC(N)=O)C(=O)N[C@@H]([C@@H](C)O)C(=O)N[C@@H](C)C(=O)N[C@@H]([C@@H](C)O)C(=O)N1)[C@@H](C)O)C(=O)N[C@@H](CC(C)C)C(=O)N1CCC[C@H]1C(=O)N1CCC[C@H]1C(=O)N[C@H](C(=O)N[C@@H](CC(N)=O)C(=O)N[C@H](C(=O)NCC(=O)N[C@@H](CO)C(=O)N[C@@H](CC(N)=O)C(=O)N[C@H](C(=O)N[C@@H](Cc1ccc(O)cc1)C(N)=O)[C@@H](C)O)C(C)C)[C@@H](C)O ({C20 diacid-γGlu-γGlu}-RCNTATCATQRLAEFLHHSSNNFGPILPPTNVGSNTY-NH2; disulfide 2-7) | 5 | 46 | 39 | 2
